Legend:
primary rat HSCs = test: [3H]-thymidine incorporation, de-novo DNA synthesis; format: cell-based; conditions: primary rHSCs
CFSC = test: Fibrosis-associated gene expression, quantitative real-time PCR; format: cell-based, rat
Experimental: 30 mg/l CVI, 133 mg/l of the monomeric alpha chains of CVI and/or TGF-β (2 ng/ml) were added after 24 h. […] Reverse transcribed complementary DNA templates were amplified by quantitative real-time polymerase chain reaction (PCR; Roche Diagnostics, Mannheim, Germany) using fluorogenic probes labeled with 6-carboxy-fluorescein and 6-carboxy-tetramethylrhodamin (Sigma- Genosys, Steinheim, Germany) and primer pairs (Invitrogen, Karlsruhe, Germany) specific for fibrosis-associated genes (for sequences see S2 Table). Gene expressions were normalized to glyceraldehyde phosphate dehydrogenase (GAPDH).

CFSC (rat HSC cell line) = test: [3H]-thymidine incorporation, de-novo DNA synthesis; format: cell-based; parameters: proliferative effect of reconstituted CVI after denaturation and refolding: dose or concentration left out as unconfirmed
Experimental: Immediately before use, guanidine hydrochloride (6 mol/l) was cleared over night by activated charcoal (Merck, Darmstadt, Germany) and adjusted to pH 8.0 by adding 50 mmol/l tris(hydroxymethyl)aminomethane (Tris). Freeze dried CVI (10 mg/ml) was mixed with 1 ml Tris-buffered guanidine-hydrochloride, incubated at room temperature for 1 h with frequent thorough vortex followed by 1 h at 37°C. The buffer from the clear supernatant after centrifugation (10.000 x g, 10 min, 4°C) was replaced for 150 mmol/l HAc by gelfiltration (Sephadex-G25; GE Healthcare, Munich, Germany). This procedure regains the biological activity of CVI on CFSC (S1 Fig).
5x10^3CFSC in 100 μl 10% FBS were seeded into a 96-well flat-bottom tissue culture plate (Nunc, Roskilde, Denmark). After 24 hours, medium was completely removed, and cells were rinsed with 200 μl phosphate-buffered saline and 100 μl standard medium containing only 0.25% FBS were added. Cells were cultured for additional 24 h prior to treatment. Synchronized microcultures in 96-well plates were treated for 2 hours in reduction medium. […] [^3H]-thymidine incorporation was measured as described before. […] After neutralization with 800 mmol/l HCl, lysates were collected to a glassfibre mat and the de-novo DNA synthesis was assessed by liquid scintillation (LKB Wallac, Bromma, Sweden) and the radioactive decay was counted (for) a minute (cpm).

CVI: Human collagen VI isolated from placentas by pepsin digestion; triple helical, soluble
de-novo DNA synthesis ([3H]-thymidine incorporation) (primary rat HSCs; CVI at 10 μg/ml, within 24 hours, three independent experiments): stimulated a robust de-novo DNA synthesis | de-novo DNA synthesis ([3H]-thymidine incorporation) at increasing concentration (primary rat HSCs; CVI from 10 μg/ml up to 100 μg/ml, concentration dependent): equaling the effects of 10% FBS | kinetics of CI expression compared with TGF-β (CFSC; CFSC, medium containing 0.2% FBS, S3 Fig): slightly decreased and delayed | αSMA, CI and TGF-β expression (CFSC; serum-starved CFSC, 30 mg/l CVI, 24 h, qPCR normalized to GAPDH): potently induced | reduction of the expression of MMP-3 (CFSC; serum-starved CFSC, 24 h, TGF-β 2 ng/ml, CVI 30 mg/l, qPCR normalized to GAPDH): only slightly reduced | expression of TIMP-1 (CFSC; serum-starved CFSC, 24 h, qPCR normalized to GAPDH): stimulated the expression of TIMP-1 | de-novo DNA synthesis ([3H]-thymidine incorporation) (CFSC (rat HSC cell line); 24 h, n = three independent experiments): induced a comparable increase in de-novo DNA synthesis | proliferative effect of reconstituted CVI after denaturation and refolding (CFSC (rat HSC cell line); three independent experiments (S1 Fig)): regains its biological activity
